The values that follow come from patent US20200069592A1, “HSP90 INHIBITOR ORAL FORMULATIONS AND RELATED METHODS” (Samus Therapeutics, Inc., priority 2017, published 2020).

The subject of the assay is MDA-MB-468 triple negative breast tumor xenograft. In words: MDA-MB-468 triple negative breast tumor xenograft model, tumor volume (IP vs PO). It is filed as in vivo, Nu/Nu (athymic nude) female mice. The note with it: for Mean tumor volume as % of mean tumor volume in control mice receiving vehicle alone / Mean tumor volume as % of mean tumor volume in mice receiving 75 mg/kg orally or intraperitoneally: Day 89; for Mean tumor volume on Day 117 relative to the same mice at Day 1: treatment stopped Day 103. As for the experimental part:
Mice were identified with a transponder.
To form the xenografts, 1×10^7 MDA-MB-468 cells suspended in 0.1 ml of 50% Matrigel/50% Media (1:1) were injected into the mammary fat pad of each mouse. Treatment was initiated when the mean tumor size reached 100-150 mm^3 and the day of treatment initiation was designated as Day 1. Subcutaneous tumor size was calculated as tumor volume (mm^3)=(a×b^2/2), where ‘b’ is the smallest diameter and ‘a’ is the largest diameter.
Oral gavage was used for oral administration.

In the case of `CC(C)NCCCn1c(Sc2cc3c(cc2I)OCO3)nc2c(N)ncnc21` [Compound 1 2HCl], the “Effect on tumor growth (tumor volume)” value is, setting by setting: (75 mg/kg IP, TIW, Day 36) “tumor inhibition was observed”; (75 mg/kg PO vs same dose IP, first 14 days of treatment) “inhibited tumor growth slightly more than intraperitoneal administration”; (75 mg/kg PO, TIW, Day 36) “tumor inhibition was observed”; (100 mg/kg PO, TIW, 89 days) “tumor regressive”; (100 mg/kg PO, TIW, Day 36) “Tumor inhibition was also observed”; (125 mg/kg PO, TIW (dosing holiday Day 29), 36 day period) “caused tumor regression”. The “Effect on tumor growth (tumor volume)” value (125 mg/kg PO, TIW with dosing holidays, 89 days) is “tumor regressive”; the “Effect on tumor growth (tumor volume)” value (Group 2: 75 mg/kg IP in PBS, TIW, Study Days 1-8) is “did not inhibit tumor growth”; the “Effect on tumor growth (tumor volume)” value (Group 3: 75 mg/kg PO in 0.5% MC, TIW, Day 8, compared with Group 2) is “tumor growth was reduced”; the “Effect on tumor growth (tumor volume)” value (Group 4: 100 mg/kg PO, TIW, Days 1-8, compared to Group 1) is “Inhibition of tumor growth”; the “Effect on tumor growth (tumor volume)” value (Group 5: 125 mg/kg PO, TIW, Days 1-8) was “greatest suppression of tumor growth”; the “Effect on tumor growth (tumor volume)” value (Group 6: 150 mg/kg PO, TIW, Days 1-8) is listed as “greatest suppression of tumor growth”. The “Mean tumor volume as % of mean tumor volume in control mice receiving vehicle alone” value is, setting by setting: (75 mg/kg IP, TIW) “about 20%”; (75 mg/kg PO, TIW) “about 20%”. Moreover, the “Mean tumor volume on Day 117 relative to the same mice at Day 1” value is, setting by setting: (75 mg/kg IP) 1.7-1.9 times; (75 mg/kg PO) 1.7-1.9 times. The “Mean tumor volume as % of mean tumor volume in mice receiving 75 mg/kg orally or intraperitoneally” value (100 mg/kg PO, TIW) is given as “about 50%” and the “Mean tumor volume as % of mean tumor volume in mice receiving 75 mg/kg orally or intraperitoneally” value (125 mg/kg PO, TIW with dosing holidays, dosing ended Day 78) is given as “about 50%”. The “Mean tumor volume as % of mean tumor volume in the same mice at day 1” value was “about 63%” (100 mg/kg PO, after treatment stopped Day 103, study to Day 117) and roughly 70% (125 mg/kg PO, after treatment stopped Day 78, study to Day 117).
